Activity calls are given as the source filed them. The calls are words filed in the database; no cut-off is given here.
Legend:
[1] = system: Cucumis sativus; test: Inhibition of fatty acid synthesis in Cucumis sativus (cucumber) using [14C]malonate assessed as inhibition of [14C]-labeled 16C fatty acid production at 300 uM after 3 hr by liquid scintillation counting; assay type: functional, organism-based
[2] = system: Cucumis sativus; test: Inhibition of fatty acid synthesis in Cucumis sativus (cucumber) assessed as inhibition of [14C]acetate incoporation in total fatty acids at 300 uM measured as total disintegration per g of fresh weight after 3 hr by liquid scintillation counting (reference value: 6.4 +/- 1.2 dpm x 10^6 g'1 fresh wt); assay type: functional
[3] = system: Hordeum vulgare; test: Inhibition of fatty acid synthesis in Hordeum vulgare (barley) using [14C]malonate assessed as inhibition of [14C]-labeled 24C fatty acid production at 300 uM after 3 hr by liquid scintillation counting; assay type: functional, organism-based
[4] = system: Cucumis sativus; test: Inhibition of fatty acid synthesis in Cucumis sativus (cucumber) using [14C]malonate assessed as inhibition of [14C]-labeled 22C fatty acid production at 300 uM after 3 hr by liquid scintillation counting; assay type: functional, organism-based
[5] = system: Cucumis sativus; test: Inhibition of fatty acid synthesis in Cucumis sativus (cucumber) using [14C]malonate assessed as inhibition of [14C]-labeled 24C fatty acid production at 300 uM after 3 hr by liquid scintillation counting; assay type: functional, organism-based
[6] = system: Cucumis sativus; test: Inhibition of fatty acid synthesis in Cucumis sativus (cucumber) assessed as inhibition of [14C]malonate incoporation in total fatty acids at 300 uM measured after 3 hr by liquid scintillation counting; assay type: functional, organism-based
[7] = system: Hordeum vulgare; test: Inhibition of fatty acid synthesis in Hordeum vulgare (barley) using [14C]acetate assessed as [14C]-labeled 20C fatty acid level at 300 uM after 3 hr by liquid scintillation counting (reference value: 4.7 +/- 1.6%); assay type: functional; design: scale not given: the % may be the effect or the level left
[8] = system: Hordeum vulgare; test: Inhibition of fatty acid synthesis in Hordeum vulgare (barley) using [14C]malonate assessed as inhibition of [14C]-labeled 16C fatty acid production at 300 uM after 3 hr by liquid scintillation counting; assay type: functional, organism-based
[9] = system: Cucumis sativus; test: Inhibition of fatty acid synthesis in Cucumis sativus (cucumber) using [14C]acetate assessed as [14C]-labeled 22C fatty acid level at 300 uM after 3 hr by liquid scintillation counting (reference value: 17.9 +/- 2.5%); assay type: functional; design: scale not given: the % may be the effect or the level left
[10] = system: Cucumis sativus; test: Inhibition of fatty acid synthesis in Cucumis sativus (cucumber) using [14C]malonate assessed as inhibition of [14C]-labeled 20C fatty acid production at 300 uM after 3 hr by liquid scintillation counting; assay type: functional, organism-based
[11] = system: Hordeum vulgare; test: Inhibition of fatty acid synthesis in Hordeum vulgare (barley) using [14C]acetate assessed as [14C]-labeled 18C fatty acid level at 300 uM after 3 hr by liquid scintillation counting (reference value: 60.3 +/- 1.3%); assay type: functional; design: scale not given: the % may be the effect or the level left
[12] = system: Cucumis sativus; test: Inhibition of fatty acid synthesis in Cucumis sativus (cucumber) using [14C]acetate assessed as [14C]-labeled 18C fatty acid level at 300 uM after 3 hr by liquid scintillation counting (reference value: 41.2 +/- 1.1%); assay type: functional; design: scale not given: the % may be the effect or the level left
[13] = system: Hordeum vulgare; test: Inhibition of fatty acid synthesis in Hordeum vulgare (barley) using [14C]acetate assessed as [14C]-labeled 22C fatty acid level at 300 uM after 3 hr by liquid scintillation counting (reference value: 5.5 +/- 0.2%); assay type: functional; design: scale not given: the % may be the effect or the level left
[14] = system: Cucumis sativus; test: Inhibition of fatty acid synthesis in Cucumis sativus (cucumber) using [14C]acetate assessed as [14C]-labeled 16C fatty acid level at 300 uM after 3 hr by liquid scintillation counting (reference value: 29.2 +/- 3.5%); assay type: functional; design: scale not given: the % may be the effect or the level left
[15] = system: Hordeum vulgare; test: Inhibition of fatty acid synthesis in Hordeum vulgare (barley) using [14C]malonate assessed as inhibition of [14C]-labeled 20C fatty acid production at 300 uM after 3 hr by liquid scintillation counting; assay type: functional, organism-based
[16] = system: Hordeum vulgare; test: Inhibition of fatty acid synthesis in Hordeum vulgare (barley) using [14C]malonate assessed as inhibition of [14C]-labeled 18C fatty acid production at 300 uM after 3 hr by liquid scintillation counting; assay type: functional, organism-based
[17] = system: Cucumis sativus; test: Inhibition of fatty acid synthesis in Cucumis sativus (cucumber) using [14C]acetate assessed as [14C]-labeled 20C fatty acid level at 300 uM after 3 hr by liquid scintillation counting (reference value: 5.1 +/- 0.7%); assay type: functional; design: scale not given: the % may be the effect or the level left
[18] = system: Hordeum vulgare; test: Inhibition of fatty acid synthesis in Hordeum vulgare (barley) using [14C]acetate assessed as [14C]-labeled 16C fatty acid level at 300 uM after 3 hr by liquid scintillation counting (reference value: 29.5 +/- 1.3%); assay type: functional; design: scale not given: the % may be the effect or the level left
[19] = system: Cucumis sativus; test: Inhibition of fatty acid synthesis in Cucumis sativus (cucumber) using [14C]acetate assessed as [14C]-labeled 24C fatty acid level at 300 uM after 3 hr by liquid scintillation counting (reference value: 6.5 +/- 1%); assay type: functional; design: scale not given: the % may be the effect or the level left
[20] = system: Hordeum vulgare; test: Inhibition of fatty acid synthesis in Hordeum vulgare (barley) assessed as inhibition of [14C]malonate incoporation in total fatty acids at 300 uM measured after 3 hr by liquid scintillation counting; assay type: functional, organism-based
[21] = system: Hordeum vulgare; test: Inhibition of fatty acid synthesis in Hordeum vulgare (barley) assessed as inhibition of [14C]acetate incoporation in total fatty acids at 300 uM measured as total disintegration per g of fresh weight after 3 hr by liquid scintillation counting (reference value: 5.7 +/- 0.5 dpm x 10^6 g'1 fresh wt); assay type: functional
[22] = system: Hordeum vulgare; test: Inhibition of fatty acid synthesis in Hordeum vulgare (barley) using [14C]malonate assessed as inhibition of [14C]-labeled 22C fatty acid production at 300 uM after 3 hr by liquid scintillation counting; assay type: functional, organism-based
[23] = system: Cucumis sativus; test: Inhibition of fatty acid synthesis in Cucumis sativus (cucumber) using [14C]malonate assessed as inhibition of [14C]-labeled 18C fatty acid production at 300 uM after 3 hr by liquid scintillation counting; assay type: functional, organism-based
[24] = system: Cucumis sativus; test: Inhibition of fatty acid synthesis in Cucumis sativus (cucumber) assessed as inhibition of [14C]malonate incoporation in total fatty acids at 200 uM measured after 3 hr by liquid scintillation counting; assay type: functional, organism-based
[25] = system: Hordeum vulgare; test: Inhibition of fatty acid synthesis in Hordeum vulgare (barley) using [14C]acetate assessed as [14C]-labeled 20C fatty acid level at 200 uM after 3 hr by liquid scintillation counting (reference value: 4.7 +/- 1.6%); assay type: functional; design: scale not given: the % may be the effect or the level left
[26] = system: Cucumis sativus; test: Inhibition of fatty acid synthesis in Cucumis sativus (cucumber) using [14C]acetate assessed as [14C]-labeled 18C fatty acid level at 200 uM after 3 hr by liquid scintillation counting (reference value: 41.2 +/- 1.1%); assay type: functional; design: scale not given: the % may be the effect or the level left
[27] = system: Hordeum vulgare; test: Inhibition of fatty acid synthesis in Hordeum vulgare (barley) using [14C]malonate assessed as inhibition of [14C]-labeled 20C fatty acid production at 200 uM after 3 hr by liquid scintillation counting; assay type: functional, organism-based
[28] = system: Hordeum vulgare; test: Inhibition of fatty acid synthesis in Hordeum vulgare (barley) using [14C]malonate assessed as inhibition of [14C]-labeled 22C fatty acid production at 200 uM after 3 hr by liquid scintillation counting; assay type: functional, organism-based
[29] = system: Cucumis sativus; test: Inhibition of fatty acid synthesis in Cucumis sativus (cucumber) using [14C]acetate assessed as [14C]-labeled 22C fatty acid level at 200 uM after 3 hr by liquid scintillation counting (reference value: 17.9 +/- 2.5%); assay type: functional; design: scale not given: the % may be the effect or the level left
[30] = system: Cucumis sativus; test: Inhibition of fatty acid synthesis in Cucumis sativus (cucumber) using [14C]malonate assessed as inhibition of [14C]-labeled 24C fatty acid production at 200 uM after 3 hr by liquid scintillation counting; assay type: functional, organism-based
[31] = system: Cucumis sativus; test: Inhibition of fatty acid synthesis in Cucumis sativus (cucumber) assessed as inhibition of [14C]acetate incoporation in total fatty acids at 200 uM measured as total disintegration per g of fresh weight after 3 hr by liquid scintillation counting (reference value: 6.4 +/- 1.2 dpm x 10^6 g'1 fresh wt); assay type: functional
[32] = system: Cucumis sativus; test: Inhibition of fatty acid synthesis in Cucumis sativus (cucumber) using [14C]acetate assessed as [14C]-labeled 24C fatty acid level at 200 uM after 3 hr by liquid scintillation counting (reference value: 6.5 +/- 1%); assay type: functional; design: scale not given: the % may be the effect or the level left
[33] = system: Hordeum vulgare; test: Inhibition of fatty acid synthesis in Hordeum vulgare (barley) using [14C]malonate assessed as inhibition of [14C]-labeled 16C fatty acid production at 200 uM after 3 hr by liquid scintillation counting; assay type: functional, organism-based
[34] = system: Hordeum vulgare; test: Inhibition of fatty acid synthesis in Hordeum vulgare (barley) using [14C]malonate assessed as inhibition of [14C]-labeled 24C fatty acid production at 200 uM after 3 hr by liquid scintillation counting; assay type: functional, organism-based
[35] = system: Hordeum vulgare; test: Inhibition of fatty acid synthesis in Hordeum vulgare (barley) assessed as inhibition of [14C]malonate incoporation in total fatty acids at 200 uM measured after 3 hr by liquid scintillation counting; assay type: functional, organism-based
[36] = system: Hordeum vulgare; test: Inhibition of fatty acid synthesis in Hordeum vulgare (barley) using [14C]acetate assessed as [14C]-labeled 22C fatty acid level at 200 uM after 3 hr by liquid scintillation counting (reference value: 5.5 +/- 0.2%); assay type: functional; design: scale not given: the % may be the effect or the level left
[37] = system: Hordeum vulgare; test: Inhibition of fatty acid synthesis in Hordeum vulgare (barley) using [14C]acetate assessed as [14C]-labeled 18C fatty acid level at 200 uM after 3 hr by liquid scintillation counting (reference value: 60.3 +/- 1.3%); assay type: functional; design: scale not given: the % may be the effect or the level left
[38] = system: Cucumis sativus; test: Inhibition of fatty acid synthesis in Cucumis sativus (cucumber) using [14C]malonate assessed as inhibition of [14C]-labeled 18C fatty acid production at 200 uM after 3 hr by liquid scintillation counting; assay type: functional, organism-based
[39] = system: Hordeum vulgare; test: Inhibition of fatty acid synthesis in Hordeum vulgare (barley) using [14C]malonate assessed as inhibition of [14C]-labeled 18C fatty acid production at 200 uM after 3 hr by liquid scintillation counting; assay type: functional, organism-based
[40] = system: Cucumis sativus; test: Inhibition of fatty acid synthesis in Cucumis sativus (cucumber) using [14C]malonate assessed as inhibition of [14C]-labeled 20C fatty acid production at 200 uM after 3 hr by liquid scintillation counting; assay type: functional, organism-based
[41] = system: Hordeum vulgare; test: Inhibition of fatty acid synthesis in Hordeum vulgare (barley) assessed as inhibition of [14C]acetate incoporation in total fatty acids at 200 uM measured as total disintegration per g of fresh weight after 3 hr by liquid scintillation counting (reference value: 5.7 +/- 0.5 dpm x 10^6 g'1 fresh wt); assay type: functional
[42] = system: Cucumis sativus; test: Inhibition of fatty acid synthesis in Cucumis sativus (cucumber) using [14C]acetate assessed as [14C]-labeled 16C fatty acid level at 200 uM after 3 hr by liquid scintillation counting (reference value: 29.2 +/- 3.5%); assay type: functional; design: scale not given: the % may be the effect or the level left
[43] = system: Cucumis sativus; test: Inhibition of fatty acid synthesis in Cucumis sativus (cucumber) using [14C]malonate assessed as inhibition of [14C]-labeled 22C fatty acid production at 200 uM after 3 hr by liquid scintillation counting; assay type: functional, organism-based
[44] = system: Cucumis sativus; test: Inhibition of fatty acid synthesis in Cucumis sativus (cucumber) using [14C]acetate assessed as [14C]-labeled 20C fatty acid level at 200 uM after 3 hr by liquid scintillation counting (reference value: 5.1 +/- 0.7%); assay type: functional; design: scale not given: the % may be the effect or the level left
[45] = system: Hordeum vulgare; test: Inhibition of fatty acid synthesis in Hordeum vulgare (barley) using [14C]acetate assessed as [14C]-labeled 16C fatty acid level at 200 uM after 3 hr by liquid scintillation counting (reference value: 29.5 +/- 1.3%); assay type: functional; design: scale not given: the % may be the effect or the level left
[46] = system: Cucumis sativus; test: Inhibition of fatty acid synthesis in Cucumis sativus (cucumber) using [14C]malonate assessed as inhibition of [14C]-labeled 16C fatty acid production at 200 uM after 3 hr by liquid scintillation counting; assay type: functional, organism-based

Structure (SMILES): CN(C)C(=O)C(c1ccccc1)c1ccccc1 [DIPHENAMIDE]
- inhibition [1]: inactive
- Activity [2]: 6.9 ×10⁶ dpm
- inhibition [3]: inactive
- inhibition [4]: inactive
- inhibition [5]: inactive
- inhibition [6]: inactive
- Activity [7]: 7.9%
- inhibition [8]: inactive
- Activity [9]: 13.9%
- inhibition [10]: inactive
- Activity [11]: 66.1%
- Activity [12]: 48.1%
- Activity [13]: 7.6%
- Activity [14]: 26.8%
- inhibition [15]: inactive
- inhibition [16]: inactive
- Activity [17]: 6.1%
- Activity [18]: 18.4%
- Activity [19]: 5.1%
- inhibition [20]: inactive
- Activity [21]: 4 ×10⁶ dpm
- inhibition [22]: inactive
- inhibition [23]: inactive

Structure (SMILES): Cc1ccccc1CO[C@H]1C[C@]2(C(C)C)CC[C@@]1(C)O2 (relative stereo) [REL-CINMETHYLIN]
- inhibition [24]: inactive
- Activity [25]: 5.7%
- Activity [26]: 48.6%
- inhibition [27]: inactive
- inhibition [28]: inactive
- Activity [29]: 13.4%
- inhibition [30]: inactive
- Activity [31]: 8.4 ×10⁶ dpm
- Activity [32]: 4.2%
- inhibition [33]: inactive
- inhibition [34]: inactive
- inhibition [35]: inactive
- Activity [36]: 5.8%
- Activity [37]: 67.7%
- inhibition [38]: inactive
- inhibition [39]: inactive
- inhibition [40]: inactive
- Activity [41]: 5.1 ×10⁶ dpm
- Activity [42]: 28.9%
- inhibition [43]: inactive
- Activity [44]: 4.8%
- Activity [45]: 20.9%
- inhibition [46]: inactive

— ChEMBL document CHEMBL3044779, “The action of herbicides on fatty acid biosynthesis and elongation in barley and cucumber” (Pest Manag Sci, 2010)
